Measurements: the NIST ThermoML archive (doi:10.1016/j.fluid.2013.06.041)

Assay: xn = mol fraction of the nth substance listed
Conditions: 101 kPa, Liquid, Small sample (50 mg) DSC

OCCCO [propan-1,3-diol] + O
excess molar heat capacity [J/K/mol]
Conditions	283.15 K	293.15 K	298.15 K	303.15 K	313.15 K
x1 = 0.02483	1.28	1.4	1.43	1.44	1.46
x1 = 0.03693	1.89	2.08	2.13	2.16	2.26
x1 = 0.05016	2.35	2.72	2.83	2.9	2.99
x1 = 0.07515	2.54	3.22	3.44	3.59	3.8
x1 = 0.1401	2.24	3.61	4.11	4.52	5.08
x1 = 0.1504	2.2	3.67	4.21	4.64	5.27
x1 = 0.299	1.59	3.18	3.84	4.43	5.44
x1 = 0.3982	1.31	2.66	3.28	3.85	4.81
x1 = 0.4976	1.26	2.34	2.82	3.25	4.02
x1 = 0.5955	1.15	1.92	2.33	2.74	3.48
x1 = 0.7025	–	1.71	1.95	2.2	2.64
x1 = 0.7902	0.98	1.19	1.3	1.4	1.49
x1 = 0.9455	0.48	0.53	0.58	0.61	0.55

OCCCCO [1,4-butanediol] + O
excess molar heat capacity [J/K/mol]
Conditions	283.15 K	293.15 K	298.15 K	303.15 K	313.15 K
x1 = 0.00538	1.24	1.14	1.06	1.01	1.1
x1 = 0.01312	2.19	2.16	2.08	2.01	1.92
x1 = 0.02505	3.41	3.49	3.5	3.52	3.58
x1 = 0.02518	3.17	3.34	3.32	3.28	3.33
x1 = 0.03528	4.45	4.6	4.58	4.53	4.52
x1 = 0.04842	5.39	5.61	5.64	5.65	5.67
x1 = 0.0574	6.22	6.53	6.59	6.62	6.68
x1 = 0.07589	6.43	7.15	7.34	7.46	7.6
x1 = 0.08236	6.7	7.51	7.71	7.85	8.09
x1 = 0.09032	6.66	7.65	7.89	8.04	8.25
x1 = 0.1005	6.94	8.03	8.38	8.63	8.9
x1 = 0.1396	6.87	8.33	8.81	9.17	9.74
x1 = 0.1403	6.85	8.37	8.87	9.24	9.77
x1 = 0.1868	6.33	8.24	9.84	10.39	11.21
x1 = 0.2961	5.63	7.75	8.91	9.42	10.66
x1 = 0.3972	4.75	6.83	7.7	–	10.31
x1 = 0.4965	4.04	5.92	6.8	7.63	9.13
x1 = 0.5659	3.29	5.08	5.88	6.64	8.11
x1 = 0.7004	2.95	4.32	4.96	5.57	6.8
x1 = 0.7964	2.92	3.47	3.89	4.33	5.14
x1 = 0.8873	1.38	2.21	2.5	2.79	3.63
x1 = 0.9398	0.81	1.14	1.34	1.56	2.03

CC(O)CO (centres undefined) [1,2-propanediol] + O
excess molar heat capacity [J/K/mol]
Conditions	283.15 K	293.15 K	298.15 K	303.15 K	313.15 K
x1 = 0.02216	1.78	2.01	1.98	1.95	1.84
x1 = 0.05617	3.3	3.57	3.62	3.63	3.59
x1 = 0.07845	4.67	5.18	5.29	5.35	5.39
x1 = 0.1224	5.38	6.18	6.43	6.6	6.81
x1 = 0.1545	5.22	6.19	6.5	6.73	6.96
x1 = 0.1667	4.94	6.02	6.37	6.62	6.95
x1 = 0.1873	4.62	5.79	6.18	6.49	6.9
x1 = 0.2272	4.15	5.41	5.86	6.21	6.72
x1 = 0.2878	2.67	4.01	4.52	4.94	5.62
x1 = 0.3965	1.6	3.11	3.65	4.08	4.77
x1 = 0.4863	0.67	1.88	2.34	2.75	3.53
x1 = 0.5274	0.69	1.74	2.17	2.58	3.35
x1 = 0.6388	0.77	1.63	1.97	2.3	3.01
x1 = 0.753	0.72	1.32	1.55	1.76	2.18
x1 = 0.7757	0.8	1.04	1.24	1.47	1.96
x1 = 0.9045	0.26	0.38	0.11	0.14	0.32
x1 = 0.9677	0.09	–	–	–	–
